We go through one molecule from patent US20090227606A1, “Methods for Preventing or Treating Acute and Chronic Pain” (priority 2006, published 2009).

“Also recorded” adds a separate entry of the source.

Experiment [1] concerns cAMP. In words: cAMP levels in treated astrocytes, radio-receptor competition assay. The format is cell-based, rat. Particulars: days 3 and 7. The protocol: Subsequently, cells were harvested and boiled for 3 minutes followed by high-speed (8,000×g) centrifugation. Fifty microliters of the resultant supernatant (total of 300 μl) was used to determine cAMP levels in the competition assay. cAMP levels were measured using a radio-receptor competition assay. In brief, [^3H] cAMP was used in competition for a cAMP binding protein (PKA) against known concentrations of non-radiolabeled cAMP, followed by determination of the unknowns. The reaction was allowed to proceed for 2 hours at 4° C. Charcoal was used to remove excess unbound cAMP. Finally, samples were counted in 5 ml Liquiscint™ (National Diagnostics, Atlanta, Ga.).
On the technique in general: Cyclic AMP is a second messenger, typically raised through Gs and lowered through Gi signalling.

The subject of experiment [2] is GLAST. In words: Western blot of ipsilateral lumbar spinal cord, GLAST protein. Format: in vivo, rat. Particulars: day 12 post-transection. The method, then: (§1) Tissue was collected from 4-5 rats/group on postoperative days 4 or 12. In order to obtain both mRNA and protein from the same tissue sample, the L5 region of the spinal cord (ipsilateral to the injury), was isolated and placed in PBS supplemented with protease inhibitor cocktail (1:1000, Sigma Chemical Co., St. Louis, Mo.) and RNase inhibitor (0.75 U/μL Ambion, Austin, Tex.). Samples were sonicated in five one-second bursts at half-maximal power, centrifuged at 6500 rpm for 15 minutes at 4° C. Protein-containing supernatants were collected and stored at −80° C. until further processing by Western blot analysis. The pellet was treated with TRIzol reagent (Invitrogen, Carlsbad, Calif.) for the extraction of total RNA according to the manufacturer's specifications.
Protein obtained from L5 lumbar spinal cord was quantified using the Lowry method (DC assay, Bio-Rad, Hercules, Calif.). Forty micrograms of protein and standard protein markers were subjected to SDS polyacrylamide gel electrophoresis (7.5% gel, Bio-Rad, Hercules, Calif.) and id transferred to polyvinylidene difluoride (PVDF, Bio-Rad, Hercules, Calif.) filters. Nonspecific binding was blocked by incubation with 5% milk/PBS-T at room temperature for 1 hour followed by incubation overnight at 4° C. with monoclonal guinea pig anti-GLT-1 or guinea pig anti-GLAST (1:2500, Chemicon). […]
In general terms: In western blotting, separated proteins are transferred to a membrane and probed.

Experiment [3] concerns GLAST mRNA. In words: Real Time RT-PCR of ipsilateral lumbar spinal cord, GLAST mRNA. The format is in vivo, rat. The method, then: as §1, with “The pellet was treated with TRIzol reagent (Invitrogen, Carlsbad, Calif.) for the extraction of total RNA according to the manufacturer's specifications.” left out
Real time RT-PCR reactions were carried out in a total reaction volume of 25 μL containing a final concentration of 1.5 U Platinum Taq DNA polymerase (Invitrogen Corporation, Carlsbad, Calif.); 20 mM Tris HCl (pH 8.4); 50 mM KCl; 3 mM MgCl2; 200 μM dGTP, dCTP, and dATP; 400 μM dUTP and 1 U of UDG (uracyl DNA glycosylase); 900 nM of forward and reverse primers; 300 nM Taqman probe; and 5 μL of a 10-fold dilution of cDNA (50 ng) from the RT step. The iCycler™ Multicolor Real-Time PCR detection system (Bio-Rad, Hercules, Calif.) was used to quantify PCR product. […] The relative fold change from control was then expressed by calculation of 2^−ΔΔC^T for each sample and the results are expressed as the group mean fold change±SEM.

As to `CCCn1cnc2c1c(=O)n(CCCCC(C)=O)c(=O)n2C` [propentofylline], in experiment [1], the “relative cAMP/db-cAMP levels” value is “did not lead to elevation in cAMP at 3 or 7 days; also recorded: did not enhance cAMP activity”. In addition, the GLAST protein entry in experiment [2] is given as “further decreased by propentofylline treatment; also recorded: slight decrease”. Besides, the “GLAST mRNA in lumbar spinal cord” value in experiment [3] (day 4, compared to L5 spinal nerve transection alone) was “slight decrease in GLAST mRNA”. Besides, the “GLAST mRNA levels (FIG. 9B legend)” value in experiment [3] (days 4 and 12 post-transection) is listed as “unaffected”.
